Results as given in patent US12662469B2 (SIRONAX LTD, priority 2018, dated 2026).

tested on: Cell Necrosis; assay: Cell necrosis assay / cell viability assay (necrosis inhibitor activity); format: cell-based; conditions: not given

| SMILES | activity based on the cell activity assay |
| --- | --- |
| O=C1COc2cc(F)c(OC3CN(C(=O)N4N=CC[C@@H]4c4ccccc4)C3)cc2N1 [(R)-7-fluoro-6-((1-(5-phenyl-4,5-dihydro-1H-pyrazole-1-carbonyl)azetidin-3-yl)oxy)-2H-benzo[b][1,4]oxazin-3(4H)-one] | weak activity |

same assay, conditions: necrosis inhibitor activity; EC data for 14-191 extrapolated; read-out: EC50

| SMILES | EC50 [nM] |
| --- | --- |
| O=C(N1CC(Oc2ccc3cn[nH]c3c2)C1)N1N=CCC1c1cc(F)cc(F)c1 (stereo not shown) [Compound 182] | 1 to 1000 |
| Cc1cnc(N2CCN(C(=O)N3N=CCC3c3ccccc3)CC2)s1 (stereo not shown) [Compound 106, (4-(5-methylthiazol-2-yl)piperazin-1-yl)(5-phenyl-4,5-dihydro-1H-pyrazol-1-yl)methanone] | 1000 to 10000 |
| C[C@@H]1CN(c2ncc(F)cn2)C[C@H](C)N1C(=O)N1N=CCC1c1cc(F)cc(F)c1 (stereo partly drawn) [Compound 30, (5-(3,5-difluorophenyl)-4,5-dihydro-1H-pyrazol-1-yl)((2R,6S)-4-(5-fluoropyrimidin-2-yl)-2,6-dimethylpiperazin-1-yl)methanone] | 1 to 1000 |
| O=C(N1CC(C(F)c2ccc(F)cc2F)C1)N1N=CCC1c1cc(F)cc(F)c1 (stereo not shown) [Compound 134, (5-(3,5-difluorophenyl)-4,5-dihydro-1H-pyrazol-1-yl)(3-((2,4-difluorophenyl)fluoromethyl)azetidin-1-yl)methanone] | 1 to 1000 |
| CC(=C1CN(C(=O)N2N=CCC2c2ccccc2)C1)c1ccccc1 (stereo not shown) [Compound 123, (5-phenyl-4,5-dihydro-1H-pyrazol-1-yl)(3-(1-phenylethylidene)azetidin-1-yl)methanone] | 1 to 1000 |
| COc1cccc(CC2CN(C(=O)N3N=CCC3c3ccccc3)C2)c1 (stereo not shown) [Compound 39, (3-(3-methoxybenzyl)azetidin-1-yl)(5-phenyl-4,5-dihydro-1H-pyrazol-1-yl) methanone] | 1 to 1000 |
| O=C(N1CCN(c2ncccn2)CC1)N1N=CCC1c1ccccc1 (stereo not shown) [Compound 84, (5-phenyl-4,5-dihydro-1H-pyrazol-1-yl)(4-(pyrimidin-2-yl)piperazin-1-yl)methanone] | 1 to 1000 |
| C[C@H]1CN(c2ncc(F)cn2)CCN1C(=O)N1N=CC[C@@H]1c1cc(F)cc(F)c1 [Compound 118B, ((R)-5-(3,5-difluorophenyl)-4,5-dihydro-1H-pyrazol-1-yl)((S)-4-(5-fluoropyrimidin-2-yl)-2-methylpiperazin-1-yl)methanone] | 1 to 1000 |
| Cc1cnc(N2CCN(C(=O)N3N=CCC3c3ccccc3)CC2)nc1 (stereo not shown) [Compound 87, (4-(5-methylpyrimidin-2-yl)piperazin-1-yl)(5-phenyl-4,5-dihydro-1H-pyrazol-1-yl)methanone] | 1 to 1000 |
| O=C(c1ccccc1)N1CCN(C(=O)N2N=CCC2c2ccccc2)CC1 (stereo not shown) [Compound 95, (4-benzoylpiperazin-1-yl)(5-phenyl-4,5-dihydro-1H-pyrazol-1-yl)methanone] | 1000 to 10000 |
| N#Cc1csc(OC2CN(C(=O)N3N=CCC3c3ccccc3)C2)n1 (stereo not shown) [Compound 121, 2-((1-(5-phenyl-4,5-dihydro-1H-pyrazole-1-carbonyl)azetidin-3-yl)oxy)thiazole-4-carbonitrile] | 1 to 1000 |
| NC(=O)c1ccc(OC2CN(C(=O)N3N=CCC3c3cc(F)cc(F)c3)C2)cc1 (stereo not shown) [Compound 130, 4-((1-(5-(3,5-difluorophenyl)-4,5-dihydro-1H-pyrazole-1-carbonyl)azetidin-3-yl)oxy)benzamide] | 1 to 1000 |
| O=C(N1CC(Cc2ccc(F)cc2Cl)C1)N1N=CCC1c1ccccc1 (stereo not shown) [Compound 52, (3-(2-chloro-4-fluorobenzyl)azetidin-1-yl)(5-phenyl-4,5-dihydro-1H-pyrazol-1-yl)methanone] | 1 to 1000 |
| O=C(N1CCC(Cc2ccccc2)CC1)N1N=CCC1c1ccccc1 (stereo not shown) [Compound 18, (4-benzylpiperidin-1-yl)(5-phenyl-4,5-dihydro-1H-pyrazol-1-yl)methanone] | 1 to 1000 |
| O=C(N1CC(Oc2ccc(F)nc2)C1)N1N=CCC1c1cc(F)cc(F)c1 (stereo not shown) [Compound 141, (5-(3,5-difluorophenyl)-4,5-dihydro-1H-pyrazol-1-yl)(3-((6-fluoropyridin-3-yl)oxy)azetidin-1-yl)methanone] | 1 to 1000 |
| NC(=O)c1cccc(OC2CN(C(=O)N3N=CCC3c3cc(F)cc(F)c3)C2)c1 (stereo not shown) [Compound 129, 3-((1-(5-(3,5-difluorophenyl)-4,5-dihydro-1H-pyrazole-1-carbonyl)azetidin-3-yl)oxy)benzamide] | 1 to 1000 |
| O=C(NC1CCN(c2ccccc2)C1)N1N=CCC1c1ccccc1 (stereo not shown) [Compound 24, 5-phenyl-N-(1-phenylpyrrolidin-3-yl)-4,5-dihydro-1H-pyrazole-1-carboxamide] | 1 to 1000 |

same assay, conditions: necrosis inhibitor activity; compounds outside 14-191; read-out: EC50

| SMILES | EC50 [nM] |
| --- | --- |
| O=C1COc2cc(F)c(OC3CN(C(=O)N4N=CC[C@H]4c4cc(F)cc(F)c4)C3)cc2N1 [Compound 193, (S)-6-((1-(5-(3,5-difluorophenyl)-4,5-dihydro-1H-pyrazole-1-carbonyl)azetidin-3-yl)oxy)-7-fluoro-2H-benzo[b][1,4]oxazin-3(4H)-one] | 1 to 1000 |
| CC(C)C(=O)Nc1nc(N2CCN(C(=O)N3N=CC[C@H]3c3cc(F)cc(F)c3)CC2)ncc1F [Compound 292, (S)—N-(2-(4-(5-(3,5-difluorophenyl)-4,5-dihydro-1H-pyrazole-1-carbonyl)piperazin-1-yl)-5-fluoropyrimidin-4-yl)isobutyramide] | 1 to 1000 |
| O=C1CCc2ccc(C=C3CN(C(=O)N4N=CCC4c4cc(F)cc(F)c4)C3)cc2N1 (stereo not shown) [Compound 277, 7-((1-(5-(3,5-difluorophenyl)-4,5-dihydro-1H-pyrazole-1-carbonyl)azetidin-3-yildene)methyl)-3,4-dihydroquinolin-2(1H)-one] | 1 to 1000 |
| NC(=O)c1ccnc(O[C@@H]2CCN(C(=O)N3N=CC[C@H]3c3cc(F)cc(F)c3)C2)n1 [Compound 332, 2-(((R)-1-((S)-5-(3,5-difluorophenyl)-4,5-dihydro-1H-pyrazole-1-carbonyl)pyrrolidin-3-yl)oxy)pyrimidine-4-carboxamide] | 1 to 1000 |
| O=C(O)c1cc2sc(OC3CN(C(=O)N4N=CC[C@H]4c4cc(F)cc(F)c4)C3)nc2[nH]1 [Compound 259, (S)-2-((1(5-(3,5-difluorophenyl)-4,5-dihydro-1H-pyrazole-1-carbonyl)azetidin-3-yl)oxy)-4H-pyrrolo[2,3-d]thiazole-5-carboxylic acid] | 1 to 1000 |
| CC1Oc2cc(F)c(OC3CN(C(=O)N4N=CC[C@H]4c4cc(F)cc(C#N)c4)C3)cc2NC1=O (stereo partly drawn) [Compound 351, 3-fluoro-5-((5S)-1(3-((7-fluoro-2-methyl-3-oxo-3,4-dihydro-2H-benzo[b][1,4]oxazin-6-yl)oxy)azetidine-1-carbonyl)-4,5-dihydro-1H-pyrazol-5. yl)benzonitrile] | 1 to 1000 |
| N#Cc1ccnc(O[C@@H]2CCN(C(=O)N3N=CC[C@H]3c3cc(F)cc(F)c3)C2)n1 [Compound 359, 2-(((R)-1-((S)-5-(3,5-difluorophenyl)-4,5-dihydro-1H-pyrazole-1-carbonyl)pyrrolidin-3-yl)oxy)pyrimidine-4-carbonitrile] | 1 to 1000 |
| N#Cc1nccc(OC2CN(C(=O)N3N=CC[C@H]3c3cc(F)cc(F)c3)C2)n1 [Compound 265, (S)-4-((1-(5-(3,5-difluorophenyl)-4,5-dihydro-1H-pyrazole-1-carbonyl)azetidin-3-yl)oxy)pyrimidine-2-carbonitrile] | 1 to 1000 |
| N#Cc1cc(OC2CN(C(=O)N3N=CC[C@H]3c3cc(F)cc(F)c3)C2)ncn1 [Compound 215, (S)-6-((1-(5-(3,5-difluorophenyl)-4,5-dihydro-1H-pyrazole-1-carbonyl)115zetidine-3-yl)oxy)pyrimidine-4-carbonitrile] | 1 to 1000 |
| O=C(N1CC(=Cc2cc(NC3CC3)ncc2F)C1)N1N=CC[C@H]1c1cc(F)cc(F)c1 [Compound 326, (S)-(3-((2-(cyclopropylamino)-5-fluoropyridin-4-yl)methylene)azetidin-1-yl)(5-(3,5-difluorophenyl)-4,5-dihydro-1H-pyrazol-1-yl)methanone] | 1 to 1000 |
| NC(=O)CCNc1ncc(F)c(OC2CN(C(=O)N3N=CC[C@H]3c3cc(F)cc(F)c3)C2)n1 [Compound 270, (S)-3-((4-((1-(5-(3,5-difluorophenyl)-4,5-dihydro-1H-pyrazole-1-carbonyl)azetidin-3-yl)oxy)-5-fluoropyrimidin-2-yl)amino)propanamide] | 1 to 1000 |
| O=C1COc2ccc(C=C3CN(C(=O)N4N=CC[C@H]4c4cc(F)cc(F)c4)C3)cc2N1 [Compound 278, 6-((1-(5-(3,5-difluorophenyl)-4,5-dihydro-1H-pyrazole-1-carbonyl)azetidin-3-ylidene)methyl)-2H-benzo[b][1,4]oxazin-3(4H)-one] | 1 to 1000 |
| O=C1CCc2ccc(OC3CN(C(=O)N4N=CC[C@H]4c4cc(F)cc(F)c4)C3)cc2N1 [Compound 206, (S)-7-((1-(5-(3,5-difluorophenyl)-4,5-dihydro-1H-pyrazole-1-carbonyl)azetidin-3-yl)oxy)-3,4-dihydroquinolin-2(1H)-one] | 1 to 1000 |
| N#Cc1cccc([C@@H]2CC=NN2C(=O)N2CC(Oc3cc4c(cc3F)OCC(=O)N4)C2)c1 [Compound 195] | 1 to 1000 |
| O=C(Nc1nc(N2CCN(C(=O)N3N=CC[C@H]3c3cc(F)cc(F)c3)CC2)ncc1F)C1CCOCC1 [Compound 293, (S)—N-(2-(4-(5-(3,5-difluorophenyl)-4,5-dihydro-1H-pyrazole-1-carbonyl)piperazin-1-yl)-5-fluoropyrimidin-4-yl)tetrahydro-2H-pyran-4-carboxamide] | 1 to 1000 |
| CNC(=O)c1ccc(OC2CN(C(=O)N3N=CC[C@H]3c3cc(F)cc(F)c3)C2)cc1 [Compound 218, (S)-4-((1-(5-(3,5-difluorophenyl)-4,5-dihydro-1H-pyrazole-1-carbonyl)azetidin-3-yl)oxy)-N-methylbenzamide] | 1 to 1000 |
| COCCC1Oc2cc(F)c(OC3CN(C(=O)N4N=CC[C@H]4c4cc(F)cc(F)c4)C3)cc2N(C)C1=O (stereo partly shown) [Compound 247] | 1 to 1000 |
| O=C(N1CCCCC1)N1N=CCC1c1ccccc1 (stereo not shown) [Compound 7, (5-phenyl-4,5-dihydro-1H-pyrazol-1-yl)(piperidin-1-yl)methanone] | 1 to 1000 |
| NC(=O)c1cc(Cl)nc(O[C@H]2CCN(C(=O)N3N=CC[C@H]3c3cc(F)cc(F)c3)C2)c1 [Compound 331, 2-chloro-6-(((S)-1-((S)-5-(3,5-difluorophenyl)-4,5-dihydro-1H-pyrazole-1-carbonyl)pyrrolidin-3-yl)oxy)isonicotinamide] | 1 to 1000 |
